# Experimental data reported in ChEMBL document CHEMBL5647692, “The novel dual PI3K/mTOR inhibitor NVP-BGT226 displays cytotoxic activity in both normoxic and hypoxic hepatocarcinoma cells” (Oncotarget, 2015).
# Calls of active or inactive are those of the source. The rule behind the calls is not given here.
# Key:
# [1] = Inhibition of PI3K/Akt/mTOR signaling pathway in human SNU-475 cells assessed as reduction in S6 phosphorylation at 1 to 10 nM incubated for 1 hr under normoxia condition by Western blotting analysis; type: cell-based; details: dose 1-10 nM
# [2] = Inhibition of PI3K/Akt/mTOR signaling pathway in human SNU-475 cells assessed as reduction in phosphorylation of Akt at 1 to 10 nM incubated for 1 hr under hypoxia condition by Western blotting analysis; type: cell-based; details: dose 1-10 nM
# SNU-475 [3] = assay: Induction of apoptosis in human SNU-475 cells assessed as cleaved PARP level at 0.5 uM incubated for 24 hrs by Western blotting analysis; type: functional, cell-based
# Mahlavu [4] = assay: Induction of apoptosis in human Mahlavu cells assessed as cleaved Caspase 7 level at 0.5 uM incubated for 24 hrs by Western blotting analysis; type: functional, cell-based
# Mahlavu [5] = assay: Induction of autophagy in human Mahlavu cells assessed as increased expression of LC3A/B II level incubated for 24 hrs under hypoxia condition by Western blot analysis; type: functional, cell-based; details: dose 0.1-0.5 µM
# [6] = Inhibition of PI3K/Akt/mTOR signaling pathway in human SNU-449 cells assessed as reduction in phosphorylation of mTORC1/2 incubated for 1 hr under normoxia condition by Western blotting analysis; type: cell-based; details: dose 0.25-1 µM
# Mahlavu [7] = assay: Induction of apoptosis in human Mahlavu cells assessed as cleaved PARP level at 0.5 uM incubated for 24 hrs by Western blotting analysis; type: functional, cell-based
# [8] = Inhibition of PI3K/Akt/mTOR signaling pathway in human Hep3B cells assessed as reduction in phosphorylation of mTORC1/2 incubated for 1 hr under normoxia condition by Western blotting analysis; type: cell-based; details: dose 0.25-1 µM
# Mahlavu [9] = assay: Induction of apoptosis in human Mahlavu cells assessed as late apoptotic cells at IC50 incubated for 24 hrs in presence of Z-VAD-fmk by Annexin-V/7-AAD staining based muse cell analyzer method (reference value: 2.24 %); type: functional
# [10] = Inhibition of PI3K/Akt/mTOR signaling pathway in human SNU-475 cells assessed as reduction in phosphorylation of GSK3 alpha/beta incubated for 1 hr under normoxia condition by Western blotting analysis; type: cell-based; details: dose 0.25-1 µM
# SNU-475 [11] = assay: Induction of autophagy in human SNU-475 cells assessed as upregulation of LC3A/B II level by Western blot analysis; type: functional, cell-based; details: dose 0.1-0.5 µM
# Mahlavu [12] = assay: Induction of apoptosis in human Mahlavu cells assessed as viable cells at 0.66 uM incubated for 24 hrs by Annexin-V/7-AAD staining based muse cell analyzer method (reference value: 90.52 %); type: functional; details: read-out: Activity
# SNU-449 [13] = assay: Induction of apoptosis in human SNU-449 cells assessed as late apoptotic cells at IC50 concentration incubated for 24 hrs in presence of Z-VAD-fmk by Annexin-V/7-AAD staining based muse cell analyzer method (reference value: 5.03 %); type: functional
# [14] = Inhibition of PI3K/Akt/mTOR signaling pathway in human SNU-449 cells assessed as reduction in phosphorylation of GSK3 alpha/beta incubated for 1 hr under normoxia condition by Western blotting analysis; type: cell-based; details: dose 0.25-1 µM
# Mahlavu [15] = assay: Induction of autophagy in human Mahlavu cells assessed as reduction in cytotoxicity at 0.5 uM incubated for 24 hrs by MTT assay; type: functional, cell-based
# [16] = Inhibition of PI3K/Akt/mTOR signaling pathway in human Mahlavu cells assessed as reduction in S6 phosphorylation at 1 to 10 nM incubated for 1 hr under hypoxia condition by Western blotting analysis; type: cell-based; details: dose 1-10 nM
# SNU-449 [17] = assay: Induction of apoptosis in human SNU-449 cells assessed as necrotic cells at IC50 concentration incubated for 24 hrs in presence of Z-VAD-fmk by Annexin-V/7-AAD staining based muse cell analyzer method (reference value: 0.95 %); type: functional
# Mahlavu [18] = assay: Induction of apoptosis in human Mahlavu cells assessed as necrotic cells at IC50 incubated for 24 hrs in presence of Z-VAD-fmk by Annexin-V/7-AAD staining based muse cell analyzer method (reference value: 0.67 %); type: functional
# SNU-449 [19] = assay: Induction of apoptosis in human SNU-449 cells assessed as viable cells at IC50 concentration incubated for 24 hrs in presence of Z-VAD-fmk by Annexin-V/7-AAD staining based muse cell analyzer method (reference value: 90.07 %); type: functional
# Mahlavu [20] = assay: Induction of apoptosis in human Mahlavu cells assessed as early apoptotic cells at 0.66 uM incubated for 24 hrs by Annexin-V/7-AAD staining based muse cell analyzer method (reference value: 6.57 %); type: functional
# SNU-475 [21] = assay: Induction of autophagy in human SNU-475 cells assessed as increase in LC3I to LC3II conversion at 0.5 uM incubated for 24 hrs under hypoxia condition by Western blot analysis; type: functional, cell-based
# SNU-475 [22] = assay: Induction of autophagy in human SNU-475 cells assessed as reduction in SQSTM1/p62 level by Western blot analysis; type: functional, cell-based; details: dose 0.1-0.5 µM
# Mahlavu [23] = assay: Induction of apoptosis in human Mahlavu cells assessed as viable cells at IC50 incubated for 24 hrs in presence of Z-VAD-fmk by Annexin-V/7-AAD staining based muse cell analyzer method (reference value: 90.52 %); type: functional
# [24] = target: Hypoxia-inducible factor 1-alpha (Homo sapiens) (UniProt Q16665); assay: Inhibition of HIF-1alpha in human Mahlavu cells incubated for 6 hrs under hypoxia condition by Western blot analysis; type: cell-based; details: dose 0.01-0.1 µM
# [25] = Inhibition of PI3K/Akt/mTOR signaling pathway in human SNU-475 cells assessed as reduction in phosphorylation of Akt at 1 to 10 nM incubated for 1 hr under normoxia condition by Western blotting analysis; type: cell-based; details: dose 1-10 nM
# SNU-475 [26] = assay: Induction of apoptosis in human SNU-475 cells incubated for 24 hrs by Annexin-V/7-AAD staining based muse cell analyzer method; type: functional; details: dose 0.01-0.5 µM
# Hep 3B2 [27] = assay: Anti-tumor activity against human Hep3B cells assessed as reduction of VEGF level incubated for 24 hrs under hypoxia condition by Western blot analysis; type: functional, cell-based; details: dose 0.01-0.1 µM
# SNU-475 [28] = assay: Induction of autophagy in human SNU-475 cells assessed as increased expression of LC3A/B II level incubated for 24 hrs under hypoxia condition by Western blot analysis; type: functional, cell-based; details: dose 0.1-0.5 µM
# SNU-475 [29] = assay: Induction of apoptosis in human SNU-475 cells assessed as cleaved Caspase 9 level at 0.5 uM incubated for 24 hrs by Western blotting analysis; type: functional, cell-based
# SNU-475 [30] = assay: Cytotoxicity against human SNU-475 cells assessed as reduction in cell viability at 0.5 uM incubated for 24 hrs in presence of chloroquine by MTT assay; type: functional, cell-based
# SNU-475 [31] = assay: Induction of autophagy in human SNU-475 cells assessed as increase expression of LC3 A/B II at 0.5 uM incubated for 24 hrs in presence of chloroquine under hypoxia condition by Western blot analysis; type: functional, cell-based
# SNU-475 [32] = assay: Induction of autophagy in human SNU-475 cells assessed as increase in lipidation of LC3A/B II level at 0.5 uM incubated for 24 hrs in presence of chloroquine by Western blot analysis; type: functional, cell-based
# Hep 3B2 [33] = assay: Cytotoxicity against human Hep3B cells assessed as reduction in cell viability incubated for 48 hrs by MTT assay; type: functional, cell-based
# SNU-449 [34] = assay: Cytotoxicity against human SNU-449 cells assessed as reduction in cell viability incubated for 24 hrs under normoxia condition by MTT assay; type: functional, cell-based
# Hypoxia-inducible factor 1-alpha (Homo sapiens), sequence (Q16665 whole entry, looked up): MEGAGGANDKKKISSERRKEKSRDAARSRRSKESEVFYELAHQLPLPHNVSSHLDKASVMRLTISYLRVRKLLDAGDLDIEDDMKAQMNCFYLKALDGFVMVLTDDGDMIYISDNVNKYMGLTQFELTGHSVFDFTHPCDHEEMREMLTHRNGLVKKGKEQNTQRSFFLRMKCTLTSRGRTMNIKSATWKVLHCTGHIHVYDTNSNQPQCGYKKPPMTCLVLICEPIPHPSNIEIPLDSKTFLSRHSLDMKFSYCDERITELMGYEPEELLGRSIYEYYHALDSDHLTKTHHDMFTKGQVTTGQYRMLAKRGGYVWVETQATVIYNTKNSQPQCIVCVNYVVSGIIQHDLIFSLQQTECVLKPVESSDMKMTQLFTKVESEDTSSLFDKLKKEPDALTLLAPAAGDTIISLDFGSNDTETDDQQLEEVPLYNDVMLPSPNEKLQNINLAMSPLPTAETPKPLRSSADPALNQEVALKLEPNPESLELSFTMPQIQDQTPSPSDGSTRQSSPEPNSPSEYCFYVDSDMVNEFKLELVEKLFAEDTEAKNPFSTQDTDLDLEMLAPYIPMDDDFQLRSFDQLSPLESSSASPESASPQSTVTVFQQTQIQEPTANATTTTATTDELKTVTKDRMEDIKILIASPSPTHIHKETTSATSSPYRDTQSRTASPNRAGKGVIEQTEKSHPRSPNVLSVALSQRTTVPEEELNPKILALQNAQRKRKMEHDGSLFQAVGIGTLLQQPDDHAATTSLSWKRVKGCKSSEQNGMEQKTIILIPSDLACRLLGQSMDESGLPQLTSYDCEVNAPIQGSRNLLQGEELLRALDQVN
smiles,measurement,setting,value
COc1ccc(-c2ccc3ncc4c(c3c2)n(-c2ccc(N3CCNCC3)c(C(F)(F)F)c2)c(=O)n4C)cn1 [BGT-226 FREE BASE],inhibition,[1],Active
same,inhibition,[2],Active
same,Activity,SNU-475 [3],Active
same,Activity,Mahlavu [4],Active
same,Activity,Mahlavu [5],Dose-Dependent Effect
same,inhibition,[6],Dose-Dependent Effect
same,Activity,Mahlavu [7],Active
same,inhibition,[8],Dose-Dependent Effect
same,Activity,Mahlavu [9],5.85%
same,inhibition,[10],Dose-Dependent Effect
same,Activity,SNU-475 [11],Dose-Dependent Effect
same,viability at 0.66 µM,Mahlavu [12],50.8%
same,Activity,SNU-449 [13],4.05%
same,inhibition,[14],Dose-Dependent Effect
same,Activity,Mahlavu [15],Active
same,inhibition,[16],Active
same,Activity,SNU-449 [17],0.45%
same,Activity,Mahlavu [18],0.54%
same,Activity,SNU-449 [19],83.56%
same,Activity,Mahlavu [20],47.22%
same,Activity,SNU-475 [21],Dose-Dependent Effect
same,Activity,SNU-475 [22],Dose-Dependent Effect
same,Activity,Mahlavu [23],81.63%
same,inhibition,[24],Dose-Dependent Effect
same,inhibition,[25],Active
same,Activity,SNU-475 [26],Dose-Dependent Effect
same,Activity,Hep 3B2 [27],Dose-Dependent Effect
same,Activity,SNU-475 [28],Dose-Dependent Effect
same,Activity,SNU-475 [29],Active
same,Activity,SNU-475 [30],Active
same,Activity,SNU-475 [31],Active
same,Activity,SNU-475 [32],Active
same,IC50,Hep 3B2 [33],1220 nM
same,Activity,SNU-449 [34],Active
